Assay results reported in patent US20230240302A1, “Antimicrobial silver coordination complexes” (Penta Science Industries Holding B.V., priority 2020, published 2023).

How the values were obtained:
[1] = Solubility; assay type: physicochemical
[2] = Photochemical and thermal stability; assay type: physicochemical

SMILES | solubility in aqueous solution [1] | photochemical and thermal stability [2]
O=S(=O)([O-])CCC[S-].O=S(=O)([O-])CCC[S-].[Ag+].[Na+].[Na+].[Na+] [Na^+3[Ag^+(MPS^2−)2]^3−] | very high solubility | 
O=C([O-])c1ccccc1[S-].O=C([O-])c1ccccc1[S-].[Ag+].[Na+].[Na+].[Na+] [Na^+3[Ag^+(TS^2−)2]^3−] | very high solubility | thermally and photochemically stable
O=S(=O)([O-])c1ccc2[nH]c([S-])nc2c1.O=S(=O)([O-])c1ccc2[nH]c([S-])nc2c1.[Ag+].[Na+].[Na+].[Na+] [Na^+3[Ag^+(X^2−)2]^3−] | very high solubility | thermally and photochemically stable
